29 molecules from patent US20230348418A1, “ISOINDOLINONE COMPOUNDS” (Monte Rosa Therapeutics, Inc., priority 2021, published 2023) can be followed below.

What is called IC50 is the concentration that gives 50% inhibition.

The target of the first assay is CRBN-DDB1 (Homo sapiens, UniProt Q96SW2). The assay can be described thus: HTRF binding of compounds to CRBN.
Sequence of CRBN-DDB1 (Q96SW2 whole entry): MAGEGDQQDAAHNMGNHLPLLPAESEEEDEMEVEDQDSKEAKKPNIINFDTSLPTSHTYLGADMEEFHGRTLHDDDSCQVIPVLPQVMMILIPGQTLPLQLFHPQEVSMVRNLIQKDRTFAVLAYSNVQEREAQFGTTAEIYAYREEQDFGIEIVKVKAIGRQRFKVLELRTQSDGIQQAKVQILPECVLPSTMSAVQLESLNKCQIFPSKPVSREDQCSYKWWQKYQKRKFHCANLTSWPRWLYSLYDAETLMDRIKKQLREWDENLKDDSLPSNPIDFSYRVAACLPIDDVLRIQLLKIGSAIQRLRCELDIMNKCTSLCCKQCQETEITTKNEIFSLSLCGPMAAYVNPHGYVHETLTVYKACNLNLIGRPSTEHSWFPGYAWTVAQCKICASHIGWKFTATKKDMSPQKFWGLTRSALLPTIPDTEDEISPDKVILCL
Sequence of CRBN-DDB1 (Q16531 whole entry partner): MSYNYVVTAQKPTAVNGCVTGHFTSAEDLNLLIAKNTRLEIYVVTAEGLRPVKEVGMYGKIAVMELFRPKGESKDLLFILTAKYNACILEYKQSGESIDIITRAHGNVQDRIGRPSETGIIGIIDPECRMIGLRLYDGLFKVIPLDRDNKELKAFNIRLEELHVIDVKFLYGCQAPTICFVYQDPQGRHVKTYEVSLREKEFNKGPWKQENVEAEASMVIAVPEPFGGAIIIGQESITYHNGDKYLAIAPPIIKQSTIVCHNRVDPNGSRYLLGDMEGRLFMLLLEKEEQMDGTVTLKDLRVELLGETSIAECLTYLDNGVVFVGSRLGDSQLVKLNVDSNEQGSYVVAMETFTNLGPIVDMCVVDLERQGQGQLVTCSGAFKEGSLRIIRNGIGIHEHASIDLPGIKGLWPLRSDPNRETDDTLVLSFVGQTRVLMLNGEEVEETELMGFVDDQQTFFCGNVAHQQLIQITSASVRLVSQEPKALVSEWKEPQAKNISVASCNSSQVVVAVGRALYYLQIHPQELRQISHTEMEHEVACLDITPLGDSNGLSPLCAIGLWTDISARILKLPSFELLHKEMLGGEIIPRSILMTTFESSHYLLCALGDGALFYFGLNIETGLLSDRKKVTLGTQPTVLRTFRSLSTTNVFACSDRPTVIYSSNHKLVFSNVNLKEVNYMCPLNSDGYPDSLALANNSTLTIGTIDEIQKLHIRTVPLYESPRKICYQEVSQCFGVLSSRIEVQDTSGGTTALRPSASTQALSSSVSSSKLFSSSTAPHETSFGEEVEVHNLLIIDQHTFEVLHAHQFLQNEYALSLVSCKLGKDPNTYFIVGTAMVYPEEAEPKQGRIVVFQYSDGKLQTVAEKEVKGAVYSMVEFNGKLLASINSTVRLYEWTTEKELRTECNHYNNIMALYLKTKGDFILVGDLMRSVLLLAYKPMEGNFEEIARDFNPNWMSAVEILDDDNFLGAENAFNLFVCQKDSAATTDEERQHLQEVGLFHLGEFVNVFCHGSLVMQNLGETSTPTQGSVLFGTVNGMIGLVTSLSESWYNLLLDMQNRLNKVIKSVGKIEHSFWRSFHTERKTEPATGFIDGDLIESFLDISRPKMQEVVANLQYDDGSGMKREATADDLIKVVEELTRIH
Settings: not given
The method, then:
Compound activity was monitored in a Homogenous Time-Resolved Fluorescence (HTRF) assay using 1-[5-({2-[2-(2-{[2-(2,6-dioxopiperidin-3-yl)-1,3-dioxo-2,3-dihydro-1H-isoindol-4-yl]oxy}acetamido)ethoxy]ethyl}carbamoyl)pentyl]-3,3-dimethyl-2-[(1E,3E)-5-[(2E)-1,3,3-trimethyl-5-sulfo-2,3-dihydro-1H-indol-2-ylidene]penta-1,3-dien-1-yl]-3H-indol-1-ium-5-sulfonate as a fluorescent probe. […] Compounds were stored in dry, ambient temperatures at 10 mM. A 10-point, 1:3 dilution series was prepared from 10 mM stock concentrations in Echo-compatible LDV plates. 10 nL of each compound dilution series was dispensed into assays wells using an Echo 650 (Labcyte inc. USA). […] The assay was then allowed to incubate for 30 min at ambient temperature after transferring compound. […] Analysis and IC50 values were derived using KNIME analytics (KNIME Zurich) transformation and fitting within Collaborative Drug Discovery (Collaborative Drug Discovery USA). Ki was derived from the geometric mean of the IC50 values using the Cheng-Prustoff transformation.
For orientation: In TR-FRET formats the signal depends on donor and acceptor labels being close together.
`CCOc1cc(NC(=O)OCc2ccc3c(c2)C(=O)N(C2CCC(=O)NC2=O)C3)c(F)cc1C` (centres unmarked) [Compound 228] displayed an IC50 of less than 100 nM.
Molecule `Cc1cc(F)c(NC(=O)OCc2ccc3c(c2)C(=O)N(C2CCC(=O)NC2=O)C3)cc1C(F)(F)F` (centres unmarked) [Compound 233] showed an IC50 of 100 to 1000 nM.
`CC(F)(F)c1ccc(F)c(NC(=O)OCc2ccc3c(c2)C(=O)N(C2CCC(=O)NC2=O)C3)c1` (centres unmarked) [Compound 234]: the half-inhibitory concentration (IC50) was less than 100 nM.
`CC(C)(C)c1ccc(F)c(NC(=O)OCc2ccc3c(c2)C(=O)N(C2CCC(=O)NC2=O)C3)c1` (centres unmarked) [Compound 235]: the IC50 lay within 100 to 1000 nM.
Still for that read-out and setting: with `O=C1CCC(N2Cc3ccc(COC(=O)Nc4ccc(C(O)C(F)(F)F)nc4)cc3C2=O)C(=O)N1` (centres unmarked) [Compound 238] the figure was 100 to 1000 nM.

Still in this assay, the particulars now being: read-out: HTRF Class (Cereblon binding, HTRF IC50).
Take `Cc1cc(F)c(NC(=O)OCc2ccc3c(c2)C(=O)N(C2CCC(=O)NC2=O)C3)cc1C` (centres unmarked) [Compound 208, (2-(2,6-dioxopiperidin-3-yl)-3-oxoisoindolin-5-yl)methyl (2-fluoro-4,5-dimethylphenyl)carbamate]: the IC50 fell in the range of 100 to 1000 nM.
On the same count and under the same terms, with `O=C1CCC(N2Cc3ccc(COC(=O)Nc4ccc(C(O)C(F)(F)F)cc4)cc3C2=O)C(=O)N1` (centres unmarked) [Compound 209, (2-(2,6-dioxopiperidin-3-yl)-3-oxoisoindolin-5-yl)methyl (4-(2,2,2-trifluoro-1-hydroxyethyl)phenyl) carbamate] the figure was 100 to 1000 nM; with `Cc1cc(F)c(NC(=O)OCc2ccc3c(c2)C(=O)N(C2CCC(=O)NC2=O)C3)c(F)c1Cl` (centres unmarked) [Compound 211, (2-(2,6-dioxopiperidin-3-yl)-3-oxoisoindolin-5-yl)methyl (3-chloro-2,6-difluoro-4-methylphenyl)carbamate], less than 100 nM.
Regarding `O=C1CCC(N2Cc3ccc(COC(=O)Nc4cc(F)c5c(c4)CCO5)cc3C2=O)C(=O)N1` (centres unmarked) [Compound 212, (2-(2,6-dioxopiperidin-3-yl)-3-oxoisoindolin-5-yl)methyl (7-fluoro-2,3-dihydrobenzofuran-5-yl)carbamate], the IC50 is less than 100 nM.
On the same count and under the same terms, with `Cc1cc(F)c(NC(=O)OCc2ccc3c(c2)C(=O)N(C2CCC(=O)NC2=O)C3)cc1F` (centres unmarked) [Compound 213, (2-(2,6-dioxopiperidin-3-yl)-3-oxoisoindolin-5-yl)methyl (2,5-difluoro-4-methylphenyl)carbamate] the figure was less than 100 nM; with `O=C1CCC(N2Cc3ccc(COC(=O)NC45CC(N6CCOCC6)(C4)C5)cc3C2=O)C(=O)N1` (centres unmarked) [Compound 215, (2-(2,6-dioxopiperidin-3-yl)-3-oxoisoindolin-5-yl)methyl (3-morpholinobicyclo[1.1.1]pentan-1-yl)carbamate], 100 to 1000 nM; with `O=C1CCC(N2Cc3ccc(COC(=O)Nc4cccc(C5CC5)c4)cc3C2=O)C(=O)N1` (centres unmarked) [Compound 216, (2-(2,6-dioxopiperidin-3-yl)-3-oxoisoindolin-5-yl)methyl (3-cyclopropylphenyl)carbamate], 100 to 1000 nM.
As for `CC(C)c1cccc(NC(=O)OCc2ccc3c(c2)C(=O)N(C2CCC(=O)NC2=O)C3)c1` (centres unmarked) [Compound 217, (2-(2,6-dioxopiperidin-3-yl)-3-oxoisoindolin-5-yl)methyl (3-isopropylphenyl)carbamate], the half-maximal inhibitory concentration (IC50) lay in the range of 100 to 1000 nM.
Same read-out and setting: with `O=C1CCC(N2Cc3ccc(COC(=O)NC45CC(C(F)F)(C4)C5)cc3C2=O)C(=O)N1` (centres unmarked) [Compound 219, (2-(2,6-dioxopiperidin-3-yl)-3-oxoisoindolin-5-yl)methyl (3-(difluoromethyl)bicyclo[1.1.1]pentan-1-yl) carbamate] the figure was less than 100 nM.
On the same count and under the same terms, next, `CCc1cccc(NC(=O)OCc2ccc3c(c2)C(=O)N(C2CCC(=O)NC2=O)C3)c1` (centres unmarked) [Compound 220, (2-(2,6-dioxopiperidin-3-yl)-3-oxoisoindolin-5-yl)methyl (3-ethylphenyl)carbamate]: 100 to 1000 nM; `CC(C)Oc1ccc(F)c(NC(=O)OCc2ccc3c(c2)C(=O)N(C2CCC(=O)NC2=O)C3)c1` (centres unmarked) [Compound 221, (2-(2,6-dioxopiperidin-3-yl)-3-oxoisoindolin-5-yl)methyl (2-fluoro-5-isopropoxyphenyl)carbamate]: less than 100 nM.
The same measure, in the same setting: with `CC(C)(C)Oc1ccc(F)c(NC(=O)OCc2ccc3c(c2)C(=O)N(C2CCC(=O)NC2=O)C3)c1` (centres unmarked) [Compound 222, (2-(2,6-dioxopiperidin-3-yl)-3-oxoisoindolin-5-yl)methyl (5-(tert-butoxy)-2-fluorophenyl)carbamate] the figure was 100 to 1000 nM; with `CCOc1ccc(F)c(NC(=O)OCc2ccc3c(c2)C(=O)N(C2CCC(=O)NC2=O)C3)c1` (centres unmarked) [Compound 223, (2-(2,6-dioxopiperidin-3-yl)-3-oxoisoindolin-5-yl)methyl (5-ethoxy-2-fluorophenyl)carbamate], less than 100 nM.
As to `O=C1CCC(N2Cc3ccc(COC(=O)NC45C6C7C4C4C5C6C74c4ccccc4)cc3C2=O)C(=O)N1` (centres unmarked) [Compound 225, (2-(2,6-dioxopiperidin-3-yl)-3-oxoisoindolin-5-yl)methyl (4-phenylcuban-1-yl)carbamate], the IC50 was less than 100 nM.
As to `CCCOc1ccc(F)c(NC(=O)OCc2ccc3c(c2)C(=O)N(C2CCC(=O)NC2=O)C3)c1` (centres unmarked) [Compound 226, (2-(2,6-dioxopiperidin-3-yl)-3-oxoisoindolin-5-yl)methyl (2-fluoro-5-propoxyphenyl)carbamate], the concentration for half-maximal inhibition (IC50) fell in the range of 100 to 1000 nM.
In the case of `O=C1CCC(N2Cc3ccc(COC(=O)Nc4cc(OC(F)F)c(F)cn4)cc3C2=O)C(=O)N1` (centres unmarked) [Compound 227, (2-(2,6-dioxopiperidin-3-yl)-3-oxoisoindolin-5-yl)methyl (4-(difluoromethoxy)-5-fluoropyridin-2-yl)carbamate], the IC50 was 100 to 1000 nM.
Still for that read-out and setting: next, `COc1cc(NC(=O)OCc2ccc3c(c2)C(=O)N(C2CCC(=O)NC2=O)C3)c(F)cc1C` (centres unmarked) [Compound 229, (2-(2,6-dioxopiperidin-3-yl)-3-oxoisoindolin-5-yl)methyl (2-fluoro-5-methoxy-4-methylphenyl)carbamate]: less than 100 nM; `Cc1cc(F)c(NC(=O)OCc2ccc3c(c2)C(=O)N(C2CCC(=O)NC2=O)C3)cc1OC(C)C` (centres unmarked) [Compound 230, (2-(2,6-dioxopiperidin-3-yl)-3-oxoisoindolin-5-yl)methyl (2-fluoro-5-isopropoxy-4-methylphenyl)carbamate]: less than 100 nM; `CCCOc1cc(NC(=O)OCc2ccc3c(c2)C(=O)N(C2CCC(=O)NC2=O)C3)c(F)cc1C` (centres unmarked) [Compound 231, (2-(2,6-dioxopiperidin-3-yl)-3-oxoisoindolin-5-yl)methyl (2-fluoro-4-methyl-5-propoxyphenyl)carbamate]: less than 100 nM.
On the same count and under the same terms, next, `C[C@@H]1CCCN1c1cnc(NC(=O)OCc2ccc3c(c2)C(=O)N(C2CCC(=O)NC2=O)C3)c(F)c1` (stereo partly drawn) [Compound 232, (2-(2,6-dioxopiperidin-3-yl)-3-oxoisoindolin-5-yl)methyl (3-fluoro-5-((R)-2-methylpyrrolidin-1-yl)pyridin-2-yl)carbamate]: less than 100 nM; `CC1(c2ccc(NC(=O)OCc3ccc4c(c3)C(=O)N(C3CCC(=O)NC3=O)C4)cc2Cl)COC1` (centres unmarked) [Compound 236, (2-(2,6-dioxopiperidin-3-yl)-3-oxoisoindolin-5-yl)methyl (3-chloro-4-(3-methyloxetan-3-yl)phenyl)carbamate]: less than 100 nM; `Cc1cc(NC(=O)OCc2ccc3c(c2)C(=O)N(C2CCC(=O)NC2=O)C3)ncc1N1CCC[C@H]1C` (stereo partly drawn) [Compound 237, (2-(2,6-dioxopiperidin-3-yl)-3-oxoisoindolin-5-yl)methyl (4-methyl-5-((R)-2-methylpyrrolidin-1-yl)pyridin-2-yl)carbamate]: less than 100 nM.
Turning to `O=C1CCC(N2Cc3ccc(COC(=O)Nc4cccc(Cl)c4)cc3C2=O)C(=O)N1` (centres unmarked) [Compound 239, (2-(2,6-dioxopiperidin-3-yl)-3-oxoisoindolin-5-yl)methyl (3-chlorophenyl)carbamate], the IC50 lay within 100 to 1000 nM.
Take `CC1(c2ccc(NC(=O)OCc3ccc4c(c3)C(=O)N(C3CCC(=O)NC3=O)C4)cc2F)COC1` (centres unmarked) [Compound 240, (2-(2,6-dioxopiperidin-3-yl)-3-oxoisoindolin-5-yl)methyl (3-fluoro-4-(3-methyloxetan-3-yl)phenyl)carbamate]: the IC50 was 100 to 1000 nM.
